{"source": "patent US20150208654A1", "about": "“SEED COATING METHODS AND COMPOSITIONS WITH A RYANODINE RECEPTOR BINDING AGENT” (PIONEER HI-BRED INTERNATIONAL, INC., priority 2012, published 2015)", "type_in_all_cases": "in vivo", "key": {"[1]": {"tested_on": "velvetbean caterpillar (VBC) (Anticarsia gemmatalis)", "experiment": "Laboratory-field leaf bio-assay (LBF) on leaves of soybean plants grown from treated seeds", "conditions": "seed treatment 120 ug ai/seed, 2nd instar larvae", "description": "Soybean seeds were treated with chlorantraniliprole at rates of 120 ug ai/seed. The seeds were sown into soil bed fields with a size of 6 meters in length and 4 rows of 40 cm in width. Leaf samples were collected at the 3rd to the 7th soybean trifoliate growth stage and brought to the laboratory. Laboratory-field leaf bio-assay (LBF) was performed for each soybean growth stage using velvetbean caterpillar (VBC) (Anticarsia gemmatalis) exposing the leaves to 2nd instar larvae stage. Each treatment group was replicated 4 times, and results (Table 2) are expressed as % larval mortality. At 43 days after planting, the VBC larval mortality rate was 88%."}, "[2]": {"tested_on": "velvetbean caterpillar (VBC) (Anticarsia gemmatalis)", "experiment": "Field plot larvae count on soybean grown from treated seeds (area 1)", "conditions": "100 ug ai/seed, compared to untreated", "description": "(§1) Soybean seeds were treated with chlorantraniliprole at rate of 100 ug ai/seed. The seeds were sown into soil bed fields (area 1) with a size of 8 meters by 8 meters in size, with an area of 64 m2. Plots were replicated 4 times. Evaluation was based on the total number of velvetbean caterpillar (VBC) (Anticarsia gemmatalis) larvae per meter at 37 to 63 days after planting (DAP), and converted to % larvae count reduction compared to the untreated (Table 3). 50 days after planting, the VBC larvae reduction was still 73%, and after 63 days had activity at 35%."}, "[3]": {"tested_on": "velvetbean caterpillar (VBC) (Anticarsia gemmatalis)", "experiment": "Field plot larvae count on soybean grown from treated seeds (area 2)", "conditions": "100 ug ai/seed, compared to untreated", "description": "as §1, with “2)” for “1)”, “untreated.” for “untreated (Table 3). 50 days after planting, the VBC larvae reduction was still 73%, and after 63 days had activity at 35%.”"}}, "data": [{"smiles": "CNC(=O)c1cc(Cl)cc(C)c1NC(=O)c1cc(Br)nn1-c1ncccc1Cl", "note": "[Chlorantraniliprole, chlorantraniliprole]", "values": [{"measurement": "% VBC larval mortality", "setting": "[1]; 3rd trifoliate, 25 DAP", "value": 100, "unit": "%"}, {"measurement": "% VBC larval mortality", "setting": "[1]; 4th trifoliate, 29 DAP", "value": 94, "unit": "%"}, {"measurement": "% VBC larval mortality", "setting": "[1]; 5th trifoliate, 36 DAP", "value": 91, "unit": "%"}, {"measurement": "% VBC larval mortality", "setting": "[1]; 7th trifoliate, 43 DAP", "value": 88, "unit": "%"}, {"measurement": "% VBC larvae reduction", "setting": "[2]; 37 DAP", "value": 20, "unit": "%"}, {"measurement": "% VBC larvae reduction", "setting": "[2]; 50 DAP", "value": 73, "unit": "%"}, {"measurement": "% VBC larvae reduction", "setting": "[2]; 63 DAP", "value": 35, "unit": "%"}, {"measurement": "% VBC larvae reduction", "setting": "[3]; 37 DAP", "value": 25, "unit": "%"}, {"measurement": "% VBC larvae reduction", "setting": "[3]; 50 DAP", "value": 20, "unit": "%"}, {"measurement": "% VBC larvae reduction", "setting": "[3]; 63 DAP", "value": 43, "unit": "%"}]}]}
